Some test systems named below: PC-3 prostate; LOX IMVI melanoma; SK-MEL-28 melanoma; OVCAR-8 ovarian; UACC-62 melanoma; RPMI-8226 leukemia; SNB-75 CNS; IGROV1 ovarian; UACC-257 melanoma; CAKI-1 renal; COLO 205 colon; SF-268 CNS; MDA-N.
What all share (assay): NCI tumour cell line growth inhibition, 48 h

Where “and” joins values, the source holds several entries; their conditions need not be identical. Equal values may be shown once.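 Cells were grown in 96-well plates and exposed to each compound for 48 hours at five concentrations; endpoints were interpolated linearly between bracketing concentrations, or set to the highest concentration if not reached. GI50 = concentration required for 50% inhibition of growth. TGI: total growth inhibition.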 Bounds are passed on as bounds.

Consider `O=[N+]([O-])c1c(Br)cc(Br)c2c1Nc1c(ccc(Cl)c1Cl)S2`, for which the TGI in the test with PC-3 prostate was 35 µM; in the test with LOX IMVI melanoma, 8.78 µM; in the test on SK-MEL-28 melanoma, 31.4 µM; in the test with OVCAR-8 ovarian, 13.6 µM; in the test with UACC-62 melanoma, 33.1 µM; in the test with RPMI-8226 leukemia it was greater than 100 µM. The TGI was greater than 72 µM in the test on SNB-75 CNS; 31.2 µM in the test on IGROV1 ovarian; 21.2 µM in the test on UACC-257 melanoma; 33.6 µM in the test with CAKI-1 renal; 26.3 µM in the test with COLO 205 colon; 38.6 µM in the test on SF-268 CNS.

Turning to `Cn1nc2n(c1=O)CCCN2`, the TGI in the test on PC-3 prostate, with LOX IMVI melanoma, in the test on SK-MEL-28 melanoma, with OVCAR-8 ovarian, in the test with RPMI-8226 leukemia and in the test with MDA-N was greater than 100 µM throughout. For the same molecule, the TGI in the test on SNB-75 CNS, in the test with IGROV1 ovarian, with UACC-257 melanoma, with COLO 205 colon and in the test with SF-268 CNS was greater than 100 µM each time.

Take `COc1cc2c(cc1OCCCC(=O)Nc1cc(C(=O)Nc3cc(C(=O)Nc4cc(C(=O)NCCCN(C)C)n(C)n4)n(C)n3)n(C)n1)N=CC1CCCN1C2=O` (centres undefined): the TGI in the test with PC-3 prostate is greater than 100 µM; with LOX IMVI melanoma, greater than 100 µM; in the test on SK-MEL-28 melanoma, 30.7 µM; with OVCAR-8 ovarian it was greater than 100 µM; in the test on UACC-62 melanoma it was 40.6 µM; in the test on RPMI-8226 leukemia, greater than 100 µM. Also, the TGI in the test with SNB-75 CNS is 52.6 µM; in the test on IGROV1 ovarian, 7.98 µM; with UACC-257 melanoma, 40.9 µM; in the test on CAKI-1 renal it was 61.5 µM; in the test on COLO 205 colon, greater than 100 µM; with SF-268 CNS it was 89.3 µM.

In the case of `CCNc1ccc2c(c1)Cc1ccccc1-2`, the TGI in the test with PC-3 prostate, with LOX IMVI melanoma, in the test with SK-MEL-28 melanoma, in the test on OVCAR-8 ovarian, with UACC-62 melanoma and with RPMI-8226 leukemia was greater than 100 µM in each case. Further, the TGI in the test with SNB-75 CNS, in the test with IGROV1 ovarian, with UACC-257 melanoma, in the test with CAKI-1 renal, in the test with COLO 205 colon and with SF-268 CNS was greater than 100 µM each time.

`O=[N+]([O-])c1ccc2nc(-c3ccccn3)c(-c3ccccn3)nc2c1`: the TGI with PC-3 prostate, in the test with SK-MEL-28 melanoma, in the test with OVCAR-8 ovarian, in the test on UACC-62 melanoma, with RPMI-8226 leukemia and in the test on MDA-N was greater than 100 µM in each case. Also, the TGI in the test with SNB-75 CNS, with IGROV1 ovarian, in the test on UACC-257 melanoma, in the test with CAKI-1 renal, in the test with COLO 205 colon and with SF-268 CNS was greater than 100 µM in each case.

As to `[Cl][Pt+2][Cl].[NH-]C1CCCCC1[NH-]` (centres undefined), the TGI in the test with LOX IMVI melanoma was greater than 59.3 µM; in the test with SK-MEL-28 melanoma it was 65.8 µM and 56.4 µM and 20.6 µM; with OVCAR-8 ovarian it was greater than 100 µM; with UACC-62 melanoma it was 43.4 µM and > 100 µM and 17.3 µM; with RPMI-8226 leukemia, greater than 50.5 µM; in the test with SNB-75 CNS it was 97.6 µM and > 77.9 µM and 71 µM. Further, the TGI in the test with IGROV1 ovarian is > 100 µM and 45.8 µM; in the test on UACC-257 melanoma, greater than 96.6 µM; in the test with CAKI-1 renal it was > 53 µM and > 100 µM and 18.1 µM; in the test on COLO 205 colon it was > 49.5 µM and > 70.4 µM and 13.6 µM; in the test on SF-268 CNS it was 56.7 µM and > 100 µM and > 58.3 µM. The GI50 is 11.7 µM and 10.1 µM and 1.47 µM in the test on UACC-62 melanoma; 25.1 µM and 19.6 µM and 3.41 µM in the test with SNB-75 CNS; 18.9 µM and 9.23 µM and 2.45 µM in the test with IGROV1 ovarian; 1.44 µM and 3.52 µM and 0.769 µM with CAKI-1 renal.

As for `COC(=O)C1CCC(=O)N1C(=O)Cc1ccc(OC)cc1` (centres undefined), the TGI with LOX IMVI melanoma, in the test on SK-MEL-28 melanoma, in the test on OVCAR-8 ovarian, in the test on UACC-62 melanoma, in the test on SNB-75 CNS and in the test on IGROV1 ovarian was greater than 100 µM throughout. For the same molecule, the TGI in the test on UACC-257 melanoma, with CAKI-1 renal, in the test on COLO 205 colon and in the test on SF-268 CNS was greater than 100 µM in each case.

Regarding `Cc1ccccc1-n1c(C)nc2c1C(=O)c1ccccc1C2=O`, the TGI in the test with SK-MEL-28 melanoma, with OVCAR-8 ovarian, in the test on UACC-62 melanoma, with UACC-257 melanoma, with CAKI-1 renal and in the test on SF-268 CNS was greater than 100 µM throughout.

Regarding `Nc1cccc2c1C(=O)c1cccc(N)c1C2=O`, the TGI with LOX IMVI melanoma, with SK-MEL-28 melanoma, with OVCAR-8 ovarian, in the test with UACC-62 melanoma, in the test with RPMI-8226 leukemia and in the test on SNB-75 CNS was greater than 100 µM each time. Moreover, the TGI in the test on IGROV1 ovarian, in the test on UACC-257 melanoma, with CAKI-1 renal, in the test on COLO 205 colon and with SF-268 CNS was greater than 100 µM in each case.

For `CC(=O)/C(=C/n1c(=S)[nH]c2ccccc21)C(=O)Nc1ccccc1C`, the TGI with LOX IMVI melanoma, in the test on SK-MEL-28 melanoma, in the test with OVCAR-8 ovarian, in the test on MDA-N, in the test on SNB-75 CNS and in the test with IGROV1 ovarian was greater than 100 µM throughout. Further, the TGI in the test on UACC-257 melanoma, in the test on CAKI-1 renal, in the test on COLO 205 colon and with SF-268 CNS was greater than 100 µM throughout.

In the case of `C[C@@H](O)C(=O)N1[C@@H]2CC3CC[C@]2(CS1(=O)=O)C3(C)C`, the TGI in the test with PC-3 prostate, in the test with LOX IMVI melanoma, with SK-MEL-28 melanoma, with OVCAR-8 ovarian, in the test with UACC-62 melanoma and in the test on RPMI-8226 leukemia was greater than 100 µM throughout. The TGI with SNB-75 CNS, in the test with IGROV1 ovarian, in the test with UACC-257 melanoma, with CAKI-1 renal and in the test on COLO 205 colon was greater than 100 µM each time.

Regarding `C/C=C\C(CC(=O)NCCc1cn(C(=O)OCc2ccccc2)c2ccccc12)CC(=O)OC` (centres undefined), the TGI in the test with PC-3 prostate, in the test on SK-MEL-28 melanoma, in the test with OVCAR-8 ovarian, in the test with UACC-62 melanoma, with RPMI-8226 leukemia and in the test on MDA-N was greater than 100 µM each time. Also, the TGI in the test on SNB-75 CNS, in the test with IGROV1 ovarian, in the test on UACC-257 melanoma, in the test with CAKI-1 renal, with COLO 205 colon and in the test on SF-268 CNS was greater than 100 µM in each case.

For the origin of these results see PubChem BioAssay (NCI).
